What was measured:
Type in all cases: cell-based
SF-295 = assay: NCI 60 human tumor cell line screen (SRB): SF-295; details: SF-295, CNS, 48 hours, read-out: GI50 values (μM conc.)
Protocol: (§1) The in vitro anticancer activity studies for these chalcone analogues were carried out at the National Cancer Institute, USA.
(§2) The chalcone compounds have been tested at NCI, USA, against sixty human tumor cell lines derived from nine cancer types (leukemia, non-small cell lung cancer, colon cancer, CNS cancer, melanoma cancer, ovarian cancer, renal cancer, prostate cancer and breast cancer). For these compounds results are expressed as growth inhibition (GI50) values as per NCI protocol.
(§3) We describe here the development and implementation of a pilot-scale, in vitro, anticancer drug screen utilizing a panel of 60 human tumor cell lines organized into subpanels representing leukemia, melanoma, and cancers of the lung, colon, kidney, ovary, and central nervous system. The ultimate goal of this disease-oriented screen is to facilitate the discovery of new compounds with potential cell line-specific and/or subpanel-specific antitumor activity. In the current screening protocol, each cell line is inoculated onto microtiter plates, then preincubated for 28 hours. Subsequently, test agents are added in five 10-fold dilutions and the culture is incubated for an additional 48 hours. For each test agent, a dose-response profile is generated. End-point determinations of the cell viability or cell growth are performed by in situ fixation of cells, followed by staining with a protein-binding dye, sulforhodamine B (SRB). The SRB binds to the basic amino acids of cellular macromolecules; the solubilized stain is measured spectrophotometrically to determine relative cell growth or viability in treated and untreated cells.

COLO-205 = assay: NCI 60 human tumor cell line screen (SRB): COLO-205; details: COLO-205, Colon, 48 hours, read-out: GI50 values (μM conc.)
Protocol: as §1, §2, §3

HOP-92 = assay: NCI 60 human tumor cell line screen (SRB): HOP-92; details: HOP-92, Non-small cell lung, 48 hours, read-out: GI50 values (μM conc.)
Protocol: as §1, §2, §3

UO-31 = assay: NCI 60 human tumor cell line screen (SRB): UO-31; details: UO-31, Renal, 48 hours, read-out: GI50 values (μM conc.)
Protocol: as §1, §2, §3

IGROV1 = assay: NCI 60 human tumor cell line screen (SRB): IGROV1; details: IGROV-1, IGROV1, Ovarian, 48 hours, read-out: GI50 values (μM conc.)
Protocol: as §1, §2, §3

HCC-2998 = assay: NCI 60 human tumor cell line screen (SRB): HCC-2998; details: HCC-2998, Colon, 48 hours, read-out: GI50 values (μM conc.)
Protocol: as §1, §2, §3

CCRF-CEM = assay: NCI 60 human tumor cell line screen (SRB): CCRF-CEM; details: Leukemia, 48 hours, read-out: GI50 values (μM conc.)
Protocol: as §1, §2, §3

RPMI-8226 = assay: NCI 60 human tumor cell line screen (SRB): RPMI-8226; details: RPMI-8226, Leukemia, 48 hours, read-out: GI50 values (μM conc.)
Protocol: as §1, §2, §3

HCT-15 = assay: NCI 60 human tumor cell line screen (SRB): HCT-15; details: HCT-15, Colon, 48 hours, read-out: GI50 values (μM conc.)
Protocol: as §1, §2, §3

RXF 393 = assay: NCI 60 human tumor cell line screen (SRB): RXF 393; details: RXF 393, Renal, 48 hours, read-out: GI50 values (μM conc.)
Protocol: as §1, §2, §3

EKVX = assay: NCI 60 human tumor cell line screen (SRB): EKVX; details: Non-small cell lung, 48 hours, read-out: GI50 values (μM conc.)
Protocol: as §1, §2, §3

UACC-62 = assay: NCI 60 human tumor cell line screen (SRB): UACC-62; details: UACC-62, Melanoma, 48 hours, read-out: GI50 values (μM conc.)
Protocol: as §1, §2, §3

SN12C = assay: NCI 60 human tumor cell line screen (SRB): SN12C; details: Renal, 48 hours, read-out: GI50 values (μM conc.)
Protocol: as §1, §2, §3

OVCAR-4 = assay: NCI 60 human tumor cell line screen (SRB): OVCAR-4; details: OVCAR-4, Ovarian, 48 hours, read-out: GI50 values (μM conc.)
Protocol: as §1, §2, §3

HS 578T = assay: NCI 60 human tumor cell line screen (SRB): HS 578T; details: Breast, 48 hours, read-out: GI50 values (μM conc.)
Protocol: as §1, §2, §3

T-47D = assay: NCI 60 human tumor cell line screen (SRB): T-47D; details: T47D, Breast, 48 hours, read-out: GI50 values (μM conc.)
Protocol: as §1, §2, §3

SF-539 = assay: NCI 60 human tumor cell line screen (SRB): SF-539; details: SF-539, CNS, 48 hours, read-out: GI50 values (μM conc.)
Protocol: as §1, §2, §3

SK-MEL-28 = assay: NCI 60 human tumor cell line screen (SRB): SK-MEL-28; details: SK-MEL-28, Melanoma, 48 hours, read-out: GI50 values (μM conc.)
Protocol: as §1, §2, §3

M14 = assay: NCI 60 human tumor cell line screen (SRB): M14; details: M14, Melanoma, 48 hours, read-out: GI50 values (μM conc.)
Protocol: as §1, §2, §3

U251 = assay: NCI 60 human tumor cell line screen (SRB): U251; details: U-251, U251, CNS, 48 hours, read-out: GI50 values (μM conc.)
Protocol: as §1, §2, §3

SK-MEL-5 = assay: NCI 60 human tumor cell line screen (SRB): SK-MEL-5; details: SK-MEL-5, Melanoma, 48 hours, read-out: GI50 values (μM conc.)
Protocol: as §1, §2, §3

NCI/ADR-RES = assay: NCI 60 human tumor cell line screen (SRB): NCI/ADR-RES; details: Ovarian, 48 hours, read-out: GI50 values (μM conc.)
Protocol: as §1, §2, §3

NCI-H522 = assay: NCI 60 human tumor cell line screen (SRB): NCI-H522; details: NCI-H522, Non-small cell lung, 48 hours, read-out: GI50 values (μM conc.)
Protocol: as §1, §2, §3

CAKI-1 = assay: NCI 60 human tumor cell line screen (SRB): CAKI-1; details: CAKI-1, Renal, 48 hours, read-out: GI50 values (μM conc.)
Protocol: as §1, §2, §3

NCI-H322M = assay: NCI 60 human tumor cell line screen (SRB): NCI-H322M; details: Non-small cell lung, 48 hours, read-out: GI50 values (μM conc.)
Protocol: as §1, §2, §3

MDA-MB-435 = assay: NCI 60 human tumor cell line screen (SRB): MDA-MB-435; details: MDA-MB-435, Melanoma, 48 hours, read-out: GI50 values (μM conc.)
Protocol: as §1, §2, §3

HOP-62 = assay: NCI 60 human tumor cell line screen (SRB): HOP-62; details: HOP-62, Non-small cell lung, 48 hours, read-out: GI50 values (μM conc.)
Protocol: as §1, §2, §3

NCI-H23 = assay: NCI 60 human tumor cell line screen (SRB): NCI-H23; details: NCI-H23, Non-small cell lung, 48 hours, read-out: GI50 values (μM conc.)
Protocol: as §1, §2, §3

SK-MEL-2 = assay: NCI 60 human tumor cell line screen (SRB): SK-MEL-2; details: SK-MEL-2, Melanoma, 48 hours, read-out: GI50 values (μM conc.)
Protocol: as §1, §2, §3

Compound | GI50 (SF-295) [µM] | GI50 (COLO-205) [µM] | GI50 (HOP-92) [µM] | GI50 (UO-31) [µM] | GI50 (IGROV1) [µM] | GI50 (HCC-2998) [µM] | GI50 (CCRF-CEM) [µM] | GI50 (RPMI-8226) [µM] | GI50 (HCT-15) [µM] | GI50 (RXF 393) [µM] | GI50 (EKVX) [µM] | GI50 (UACC-62) [µM] | GI50 (SN12C) [µM] | GI50 (OVCAR-4) [µM] | GI50 (HS 578T) [µM] | GI50 (T-47D) [µM] | GI50 (SF-539) [µM] | GI50 (SK-MEL-28) [µM] | GI50 (M14) [µM] | GI50 (U251) [µM] | other results
COc1cc(C(=O)/C=C/c2cccnc2Nc2ccccc2)cc(OC)c1OC [6a, (E)-3-(2-(Phenylamino)pyridin-3-yl)-1-(3,4,5-trimethoxyphenyl)prop-2-en-1-one] | 1.87 | 1.29 | 0.39 | 1.19 | 2.37 | 1.18 | 0.32 | 0.35 | 0.74 | 1.12 | 1.61 | 1.29 | 1.21 | 1.45 | 2.15 | 1.43 | 1.65 | 1.58 | 1.5 | 1.12 | GI50 (SK-MEL-5): 1.34 µM; GI50 (NCI/ADR-RES): 1.03 µM; GI50 (NCI-H522): 0.49 µM; GI50 (CAKI-1): 1.16 µM; GI50 (NCI-H322M): 1.9 µM; GI50 (MDA-MB-435): 0.63 µM; GI50 (HOP-62): 0.65 µM; GI50 (NCI-H23): 1.43 µM; GI50 (SK-MEL-2): 1.66 µM
COc1cc(C(=O)/C=C/c2cccnc2Nc2ccc(Cl)cc2)cc(OC)c1OC [6ax, (E)-3-(2-(4-Chlorophenylamino)pyridin-3-yl)-1-(3,4,5-trimethoxyphenyl)prop-2-en-1-one] | 1.93 | 1.83 | 0.51 | 1.32 | 2.24 | 1.52 | 0.37 | 0.65 | 1.49 | 1.26 | 1.61 | 1.54 | 1.46 | 1.51 | 3.08 | 1.42 | 1.71 | 1.72 | 1.75 | 1.25 | GI50 (SK-MEL-5): 1.5 µM; GI50 (NCI/ADR-RES): 1.64 µM; GI50 (NCI-H522): 1.46 µM; GI50 (CAKI-1): 1.75 µM; GI50 (NCI-H322M): 1.95 µM; GI50 (MDA-MB-435): 1.49 µM; GI50 (HOP-62): 1.65 µM; GI50 (NCI-H23): 1.58 µM; GI50 (SK-MEL-2): 2.01 µM
COc1ccc(Nc2ncccc2/C=C/C(=O)c2cc(OC)c(OC)c(OC)c2)cc1 [6h, (E)-3-(2-(4-Methoxyphenylamino)pyridin-3-yl)-1-(3,4,5-trimethoxyphenyl)prop-2-en-1-one] | 1.85 | 1.69 | 1.59 | 1.12 | 2 | 1.68 | 0.5 | 1.08 | 1.66 | 1.49 | 1.8 | 1.56 | 1.56 | 1.62 | 2.68 | 1.67 | 2.04 | 1.37 | 1.65 | 1.27 | GI50 (SK-MEL-5): 1.39 µM; GI50 (NCI/ADR-RES): 2.23 µM; GI50 (NCI-H522): 0.36 µM; GI50 (CAKI-1): 1.52 µM; GI50 (NCI-H322M): 2.13 µM; GI50 (MDA-MB-435): 1.46 µM; GI50 (HOP-62): 1.78 µM; GI50 (NCI-H23): 1.72 µM; GI50 (SK-MEL-2): 1.47 µM

Reference: US9006451B1, “2-anilinonicotinyl based chalcones useful as potential anticancer agents and process for preparation thereof” (Council of Scientific and Industrial Research, priority 2013, dated 2015)
